Assays:
Format in all cases: biochemical
KRAS G12V = biological target: T1, KRAS G12V (Homo sapiens, UniProt P01116, G12V); assay: HTRF KRAS-SOS1 interaction assay, KRAS G12V; details: binned ≤2 μM / >2 μM, read-out: Inhibition of KRAS G12V (IC50)
T1 construct: made in house; host or cells: E. coli, e.g. BL21 (DE3)
Excerpt: (§1) This assay can be also used to assess a selective inhibition or reduction of signaling output of a mutant Ras protein relative to a wildtype, or relative to a different mutant Ras protein. For example, the equilibrium interaction of wildtype KRAS or K-Ras mutant (e.g., wildtype or a mutant thereof) with SOS1 (e.g., hSOS1) can be assessed as a proxy or an indication for the ability of a subject compound to bind and inhibit Ras protein. The HTRF assay detects from (i) a fluorescence resonance energy transfer (FRET) donor (e.g., antiGST-Europium) that is bound to GST-tagged K-Ras mutant to (ii) a FRET acceptor (e.g., anti-6His-XL665) bound to a His-tagged hSOS1.
(§2) The assay buffer can contain ˜5 mM HEPES pH 7.4, ˜150 mM NaCl, ˜1 mM DTT, 0.05% BSA and 0.0025% (v/v) Igepal. A Ras working solution is prepared in an assay buffer containing typically a suitable amount of the protein construct (e.g., GST-tagged K-Ras mutant) and the FRET donor (e.g., antiGST-Eu (K) from Cisbio, France). A SOS1 working solution is prepared in an assay buffer containing suitable amount of the protein construct (e.g., His-hSOS1) and the FRET acceptor (e.g., anti-6His-XL665 from Cisbio, France). A suitable amount of the protein construct will depend on the range of activity or range of IC50 values being detected or under investigation. For detecting an IC50 within a range of 500 nM, the protein constructs of the same range of molarity can be utilized.
(§3) A fixed volume of DMSO with or without test compound is transferred into a 384-well plate. Ras working solution is added to all wells of the test plate. SOS1 working solution is added to all wells except for those that are subsequently filled with inhibitor control solution. Upon incubation for about 10 minutes or longer, the fluorescence is measured with a M1000Pro plate reader (Tecan) using HTRF detection (excitation 337 nm, emission 1:620 nm, emission 2:665 nm). Compounds are tested in duplicate at different concentrations (for example, 10 μM, 2.5 μM, 0.63 μM, 0.16 μM, 0.04 μM, 0.01 μM test compound). The ratiometric data (i.e., emission 2 divided by emission 1) is used to calculate IC50 values against Ras using GraphPad Prism (GraphPad software). Signaling output measured in terms of IC50 values can be obtained and a ratio of IC50 against one mutant relative to another mutant can be calculated.

KRAS WT = biological target: T2, KRAS WT (Homo sapiens, UniProt P01116); assay: HTRF KRAS-SOS1 interaction assay, wildtype KRAS; details: binned ≤2 μM / >2 μM, read-out: Inhibition of KRAS WT (IC50)
T2 construct: made in house; host or cells: E. coli, e.g. BL21 (DE3)
T2 sequence (P01116 1-188 isoform P01116-2): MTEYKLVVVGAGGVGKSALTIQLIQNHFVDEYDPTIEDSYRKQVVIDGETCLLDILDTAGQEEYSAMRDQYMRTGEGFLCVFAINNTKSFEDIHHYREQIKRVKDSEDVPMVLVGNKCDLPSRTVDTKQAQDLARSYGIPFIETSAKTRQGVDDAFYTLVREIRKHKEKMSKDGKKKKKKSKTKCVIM
Excerpt: as §1, §2, §3

KRAS G12S = biological target: T3, KRAS G12S (Homo sapiens, UniProt P01116, G12S); assay: HTRF KRAS-SOS1 interaction assay, KRAS G12S; details: binned ≤2 μM / >2 μM, read-out: Inhibition of KRAS G12S (IC50)
T3 construct: made in house; host or cells: E. coli, e.g. BL21 (DE3)
T3 sequence (P01116 1-188 isoform P01116-2 G12S): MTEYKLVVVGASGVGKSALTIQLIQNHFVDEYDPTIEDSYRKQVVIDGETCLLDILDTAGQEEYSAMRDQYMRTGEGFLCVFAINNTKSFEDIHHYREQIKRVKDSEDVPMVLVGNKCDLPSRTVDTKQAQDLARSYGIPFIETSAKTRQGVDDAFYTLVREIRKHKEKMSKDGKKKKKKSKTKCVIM
Excerpt: as §1, §2, §3

KRAS G12D = biological target: T4, KRAS G12D (Homo sapiens, UniProt P01116, G12D); assay: HTRF KRAS-SOS1 interaction assay, KRAS G12D; details: binned ≤2 μM / >2 μM, read-out: Inhibition of KRAS G12D (IC50)
T4 construct: made in house; host or cells: E. coli, e.g. BL21 (DE3)
T4 sequence (P01116 1-188 isoform P01116-2 G12D): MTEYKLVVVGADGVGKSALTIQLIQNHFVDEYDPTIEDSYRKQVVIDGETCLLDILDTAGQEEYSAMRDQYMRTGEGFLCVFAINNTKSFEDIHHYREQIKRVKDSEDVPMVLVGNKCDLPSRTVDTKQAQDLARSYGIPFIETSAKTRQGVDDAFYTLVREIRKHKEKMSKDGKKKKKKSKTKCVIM
Excerpt: as §1, §2, §3

T1 sequence (P01116 1-188 isoform P01116-2 G12V): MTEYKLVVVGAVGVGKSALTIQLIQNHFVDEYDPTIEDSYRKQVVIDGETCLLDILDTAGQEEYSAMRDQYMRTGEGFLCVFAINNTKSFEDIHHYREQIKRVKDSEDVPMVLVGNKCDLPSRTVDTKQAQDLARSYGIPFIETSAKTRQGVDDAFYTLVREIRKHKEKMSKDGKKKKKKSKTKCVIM

Row | Structure (SMILES) | IC50 (KRAS G12V) | IC50 (KRAS WT) | IC50 (KRAS G12S) | IC50 (KRAS G12D)
1 | CC(c1cncnc1N)N1CCOc2c(Cl)c(-c3ccc(F)c4sc(N)c(C#N)c34)c(F)c3nc(OC[C@@]45CCCN4C[C@H](F)C5)nc1c23 (single isomer, unassigned) [Compound 646] | ≤ 2 µM | ≤ 2 µM | ≤ 2 µM | –
2 | CO/N=C1\CN2CCC[C@@]2(COc2nc3c4c(c(Cl)c(-c5ccc(F)c6sc(N)c(C#N)c56)c(F)c4n2)OCCN3[C@H](C)c2cccnc2N)C1 (single isomer, unassigned) [Compound 607] | ≤ 2 µM | ≤ 2 µM | ≤ 2 µM | –
3 | N#Cc1c(N)sc2c(F)ccc(-c3c(C(F)(F)F)c4c5c(nc(OC[C@@]67CCCN6C[C@H](F)C7)nc5c3F)N([C@H](CCN3CCOCC3)c3cccnc3N)CCO4)c12 (single isomer, unassigned) [Compound 685] | ≤ 2 µM | ≤ 2 µM | ≤ 2 µM | –
4 | C[C@H](c1cccnc1N)N1CCOc2c(C(F)(F)F)c(-c3cc(F)c(F)c4sc(N)c(C#N)c34)c(F)c3nc(OC[C@@]45CCCN4C[C@H](F)C5)nc1c23 (single isomer, unassigned) [Compound 863] | – | > 2 µM | > 2 µM | > 2 µM
5 | C[C@H](c1cccnc1N)N1CCOc2c(Cl)c(-c3ccc(F)c4sc(N)c(C#N)c34)c(F)c3nc(OCC4(CN(C)C)CC4)nc1c23 (single isomer, unassigned) [Compound 638] | ≤ 2 µM | ≤ 2 µM | ≤ 2 µM | –
6 | CS(=O)(=O)CCC[C@H](c1cccnc1N)N1CCOc2c(C(F)(F)F)c(-c3ccc(F)c4sc(N)c(C#N)c34)c(F)c3nc(OC[C@@]45CCCN4C[C@H](F)C5)nc1c23 (single isomer, unassigned) [Compound 629] | ≤ 2 µM | ≤ 2 µM | ≤ 2 µM | –
7 | N#Cc1c(N)sc2c(F)ccc(-c3c(C(F)(F)F)c4c5c(nc(OC[C@@]67CCCN6C[C@H](F)C7)nc5c3F)N([C@@H](c3cccnc3N)C(F)F)CCO4)c12 (single isomer, unassigned) [Compound 625] | ≤ 2 µM | ≤ 2 µM | ≤ 2 µM | –
8 | C[C@H](c1cccnc1N)N1CCOc2c(C(F)(F)F)c(-c3cccc4sc(N)c(C#N)c34)c(F)c3nc(OC[C@@]45CCCN4C[C@H](F)C5)nc1c23 (single isomer, unassigned) [Compound 678] | ≤ 2 µM | ≤ 2 µM | ≤ 2 µM | –
9 | N#Cc1c(N)sc2c(F)ccc(-c3c(Cl)c4c5c(nc(OC[C@@]67CCCN6C[C@H](F)C7)nc5c3F)N(C(/C=C\C(F)(F)F)c3cccnc3N)CCO4)c12 (single isomer, unassigned) [Compound 632] | ≤ 2 µM | ≤ 2 µM | ≤ 2 µM | –
10 | C[C@H](c1ccc(F)nc1N)N1CCOc2c(C(F)(F)F)c(-c3ccc(F)c4sc(N)c(C#N)c34)c(F)c3nc(OC[C@@]45CCCN4C[C@H](F)C5)nc1c23 (single isomer, unassigned) [Compound 628] | ≤ 2 µM | ≤ 2 µM | ≤ 2 µM | –
11 | CP(C)(=O)CC[C@H](c1cccnc1N)N1CCOc2c(C(F)(F)F)c(-c3ccc(F)c4sc(N)c(C#N)c34)c(F)c3nc(OC[C@@]45CCCN4C[C@H](F)C5)nc1c23 (single isomer, unassigned) [Compound 671] | ≤ 2 µM | ≤ 2 µM | ≤ 2 µM | –
12 | N#Cc1c(N)sc2c(F)ccc(-c3c(Cl)c4c5c(nc(OC[C@@]67CCCN6C[C@H](F)C7)nc5c3F)N(C(C=C(F)F)c3cccnc3N)CCO4)c12 (single isomer, unassigned) [Compound 655] | ≤ 2 µM | ≤ 2 µM | ≤ 2 µM | –
13 | N#Cc1c(N)sc2c(F)ccc(-c3c(C(F)(F)F)c4c5c(nc(OC[C@@]67CCCN6C[C@H](F)C7)nc5c3F)N([C@H](CCC3COCCO3)c3cccnc3N)CCO4)c12 (single isomer, unassigned) [Compound 624] | ≤ 2 µM | ≤ 2 µM | ≤ 2 µM | –
14 | C[C@H](c1cccnc1N)N1CCOc2c(Cl)c(-c3ccc(F)c4sc(N)c(C#N)c34)c(F)c3nc(OCC45CCCN4C[C@H](OCCCP(C)(C)=O)C5)nc1c23 (single isomer, unassigned) [Compound 677] | ≤ 2 µM | ≤ 2 µM | ≤ 2 µM | –
15 | C=CC[C@H](c1cccnc1N)N1CCOc2c(C(F)(F)F)c(-c3ccc(F)c4sc(N)c(C#N)c34)c(F)c3nc(OC[C@@]45CCCN4C[C@H](F)C5)nc1c23 (single isomer, unassigned) [Compound 616] | ≤ 2 µM | ≤ 2 µM | ≤ 2 µM | –
16 | C#C[C@H]1COc2c(Cl)c(-c3ccc(F)c4sc(N)c(C#N)c34)c(F)c3nc(OC[C@@]45CCCN4C[C@H](F)C5)nc(c23)N1C(C)c1cccnc1N (single isomer, unassigned) [Compound 664] | ≤ 2 µM | ≤ 2 µM | ≤ 2 µM | –
17 | N#Cc1c(N)sc2c(F)ccc(-c3c(C(F)(F)F)c4c5c(nc(OC[C@@]67CCCN6C[C@H](F)C7)nc5c3F)N([C@H](CC3CCOCC3)c3cccnc3N)CCO4)c12 (single isomer, unassigned) [Compound 642] | ≤ 2 µM | ≤ 2 µM | ≤ 2 µM | –
18 | N#Cc1c(N)sc2c(F)ccc(-c3c(Cl)c4c5c(nc(OC[C@@]67CCCN6C[C@H](F)C7)nc5c3F)N(C(c3cccnc3N)C(F)F)CCO4)c12 (single isomer, unassigned) [Compound 618] | ≤ 2 µM | ≤ 2 µM | ≤ 2 µM | –
19 | N#Cc1c(N)sc2c(F)ccc(-c3c(Cl)c4c5c(nc(OC[C@@]67CCCN6C[C@H](F)C7)nc5c3F)N(C(CC(F)F)c3cccnc3N)CCO4)c12 (mixture of isomers) [Compound 681, 2-amino-4-(4-(1-(2-aminopyridin-3-yl)-3,3-difluoropropyl)-8-chloro-10-fluoro-2-(((2R,7aS)-2-fluorotetrahydro-1H-pyrrolizin-7a(5H)-yl)methoxy)-5,6-dihydro-4H-[1,4]oxazepino[5,6,7-de]quinazolin-9-yl)-7-fluorobenzo[b]thiophene-3-carbonitrile] | ≤ 2 µM | ≤ 2 µM | ≤ 2 µM | –
20 | CC(c1cccnc1N)N1c2nc(OC[C@@]34CCCN3C[C@H](F)C4)nc3c(F)c(-c4ccc(F)c5sc(N)c(C#N)c45)c(Cl)c(c23)OC[C@@H]1CC#N (mixture of isomers) [Compound 615, 2-amino-4-((5S)-4-(1-(2-aminopyridin-3-yl)ethyl)-8-chloro-5-(cyanomethyl)-10-fluoro-2-(((2R,7aS)-2-fluorotetrahydro-1H-pyrrolizin-7a (5H)-yl)methoxy)-5,6-dihydro-4H-[1,4]oxazepino[5,6,7-de]quinazolin-9-yl)-7-fluorobenzo[b]thiophene-3-carbonitrile] | ≤ 2 µM | ≤ 2 µM | ≤ 2 µM | –
21 | N#Cc1c(N)sc2c(F)ccc(-c3c(C(F)(F)F)c4c5c(nc(OC[C@@]67CCCN6[C@H](COc6cnc(C(F)(F)F)cn6)CC7)nc5c3F)N([C@@H](c3cccnc3N)C(F)F)CCO4)c12 (single isomer, unassigned) [Compound 882] | ≤ 2 µM | – | ≤ 2 µM | ≤ 2 µM
22 | C[C@H](c1cccnc1N)N1CCOc2c(C(F)(F)F)c(-c3ccc(F)c4sc(N)c(C#N)c34)c(F)c3nc(OC[C@@]45CCCN4C[C@H](F)C5)nc1c23 (single isomer, unassigned) [Compound 768] | – | – | ≤ 2 µM | –
23 | N#Cc1c(N)sc2c(F)ccc(-c3c(C(F)(F)F)c4c5c(nc(OC[C@@]67CCCN6C[C@H](F)C7)nc5c3F)N([C@H](CC3CCOC3)c3cccnc3N)CCO4)c12 (single isomer, unassigned) [Compound 717] | > 2 µM | > 2 µM | – | > 2 µM
24 | Cc1cnc(N)c([C@@H](C)N2CCOc3c(C(F)(F)F)c(-c4ccc(F)c5sc(N)c(C#N)c45)c(F)c4nc(OC[C@@]56CCCN5C[C@H](F)C6)nc2c34)c1 (single isomer, unassigned) [Compound 861] | – | > 2 µM | > 2 µM | > 2 µM
